For 85 compounds, IC50 results are on record in PubChem BioAssay AID2305 (GlaxoSmithKline (GSK), 2010).

Each structure is given as a SMILES string. pIC50: −log10 of the molar value. Several values for one entry are separate records, joined by “and”; a condition that tells them apart may be missing. Equal values may be shown once.

This experiment concerns P. falciparum 3D7 growth, pLDH absorbance. Briefly: P. falciparum 3D7 growth inhibition, dose response, strain 3D7 (AID 2305).

For the compound `COc1ccc2nccc([C@@H](O)CN3CCC(NC(=O)c4cc5cccnc5[nH]4)CC3)c2c1`, the pIC50 is 6.05. In the case of `O=C(Nc1ccc(Cn2ncc(N3CCCNCC3)c(Cl)c2=O)cc1)Nc1ccc(-c2ccccc2)cc1`, the pIC50 is 6.09 and 6.10. The result for `O=C(Nc1ccc2c(c1)CCC2)c1ccc(N2CCN(c3ccncc3)CC2)cc1` reads 5.95; that for `CN(C)C(=O)c1cc(CNCc2ccccc2)ccc1-c1cccc(CNCc2ccc(-c3ccccc3)cc2)c1`, 5.98; that for `O=C(NCc1ccco1)c1ccc(CN2CCN(C(c3ccccc3)c3ccccc3)CC2)cc1`, 6.10. With `CN(CCCCNC(=O)c1cc2ccccc2[nH]1)C1CC2(CCN(C(=O)OC(C)(C)C)CC2)c2ccccc21` (stereo not given), the pIC50 was 6.03. Compound `CCCN1CCN(CC(O)CNC(=O)Nc2ccc(Cl)cc2)CC1` (stereo not given) showed a pIC50 of 7.00. `CCOc1cc(C(=O)NCCCN2CCN(c3cccc(Cl)c3)CC2)ccc1-c1nc2cc(Cl)c(F)cc2[nH]1` had a pIC50 of 6.06. As for `CS(=O)(=O)c1ccc(-c2nc(NCC3CCCCC3)cc(C(F)(F)F)n2)cc1`, the pIC50 was 6.17.

In turn, `C[C@@H](CC1CCCCC1)NCc1cccc(NS(=O)(=O)c2ccc(O)c(-c3ccno3)c2)c1` had a pIC50 of 6.42. `COc1cc2c(cc1OC)CN(CCCCc1ccc(NC(=O)c3cc(Cl)cc(Cl)c3)cc1)CC2`: the pIC50 is 5.92. Compound `Nc1nccc2ccc(OC3CCCCC3)cc12` had a pIC50 of 6.22. The value for `O=C(/C=C/c1ccc(Cl)c(Cl)c1)NCCCCCN1CCC(CCCNC(=O)Nc2ccc(C(F)(F)F)cc2)CC1` was 6.06; that for `Cc1cc2ccc(CNCCc3ccccc3Br)cc2nc1N` was 6.29. `COCCOc1ccc(Nc2nccc(-c3c(-c4cccc(NC(=O)c5c(F)cccc5F)c4)nn4ccccc34)n2)cc1Cl` showed a pIC50 of 6.44. In turn, `Cc1cccc2[nH]c(-c3cccc(-c4ccc(NC(=O)CCc5cnc[nH]5)cc4)c3)nc12` had a pIC50 of 6.52.

In turn, `O=C(CCc1cnc[nH]1)Nc1cccc(-c2cccc(-c3nc4ccccc4[nH]3)c2)c1` showed a pIC50 of 6.18. `Cc1cc(-c2ccc3c(c2)CCN(CCC2CCC(NC(=O)/C=C/c4ccccc4F)CC2)CC3)on1` (stereo not given) showed a pIC50 of 6.09. `CCCC1N=C(N)N=C(N)N1c1ccc(CC)cc1` (stereo not given) had a pIC50 of 7.15. The result for `O=C(Nc1ccc(-c2nc3ccccc3[nH]2)cc1)c1ccc(Cl)s1` reads 6.23.

For `COc1cc(C=CC(=O)N2CCC(CCN3CCC(c4c[nH]c5ccccc45)CC3)CC2)cc(OC)c1`, the pIC50 is 6.04.

In turn, `COc1cc2c(cc1C(F)(F)F)N(C(=O)Nc1cc(F)cc(-c3cccnn3)c1)CC2` showed a pIC50 of 6.57. The compound `CN1CCC[C@H]1COc1ccc(CN2CC[C@H](NC(=O)c3ccc(Cl)c(Cl)c3)C2)cc1Br` gave a pIC50 of 6.01. The compound `Cc1cccc2[nH]c(-c3ccc(-c4cccc(NC(=O)C(=O)c5cccn5C)c4)cc3)nc12` had a pIC50 of 6.01. As for `O=C(Nc1ccc(C(F)(F)F)cc1)c1cccc(S(=O)(=O)NC2CCN(CC3CCCCC3)C2)c1` (stereo not given), the negative logarithm of the IC50 (pIC50) was 6.16.

For `CC(CN(C)C)C(=O)Nc1ccc(-c2ccc(-c3nc4ccccc4[nH]3)s2)cc1` (stereo not given), the pIC50 is 6.14. `O=C(Nc1cccc(CN2CCCN(Cc3ncc[nH]3)CC2)c1)c1ccc(Cl)c(Cl)c1`: the negative logarithm of the IC50 (pIC50) is 6.10. `COc1ccc(OC)c(-c2ccc(O)c(CNCC(C)c3ccccc3)c2)c1` (stereo not given) had a pIC50 of 6.03. The compound `CC(Cc1ccc(NC(=O)c2ccc(CNCCc3ccccc3)cc2)cc1)NCCc1cccc(Cl)c1` (stereo not given) gave a pIC50 of 6.46. The result for `O=C1CCCC1Sc1nc2ccccc2c(=O)n1-c1ccc(Cl)c(Cl)c1` (stereo not given) reads 6.14; that for `CCCCCC(C)C(C)c1cc(OC(N)=O)c2c(c1)OC(C)(C)C=C2c1ccncc1` (stereo not given), 6.05.

Compound `C[C@H]1[C@H](c2cccc(Cl)c2)OCC(C)(C)N1C(=O)CCN1CCCCC1` gave a pIC50 of 6.04.

Take `NC(=O)c1ccsc1NC(=O)CNC(c1ccccc1)c1ccccc1`: the pIC50 was 6.03. `Oc1ccc(Br)cc1-c1nc2ccc(Cl)cc2nc1-c1cc(Br)ccc1O` gave a pIC50 of 6.10. The result for `COc1ccc(N2CCN(C(CNC(=O)C3CCCCC3)c3ccc4c(c3)OCO4)CC2)cc1` (stereo not given) reads 6.24; that for `O=C(/C=C/c1ccc(Cl)c(Cl)c1)NCCCCCN1CCC(NC(=O)c2ccc(F)cc2)CC1`, 6.15; that for `CN1CCN(CC(=O)Nc2ccc(-c3ccc(-c4nc5ccccc5[nH]4)s3)cc2)CC1`, 6.52. The result for `O=C(c1ccc([N+](=O)[O-])o1)N1CCN(c2nc3c(F)cc(F)cc3s2)CC1` reads 6.01; that for `Cc1nc(C(C)Nc2nncc(-c3ccc(Cl)cc3)n2)cs1` (stereo not given), 5.88.

As for `Cc1ccc(C(NC(=O)Cc2ccccc2)c2ccc3cccnc3c2O)cc1` (stereo not given), the pIC50 was 6.21.

In the case of `Cc1[nH]nc2ccc(-c3cc(OC[C@@H](N)Cc4ccccc4)cnc3-c3ccc(OCc4cccc(F)c4)cc3)cc12`, the pIC50 is 6.14.

With `FC(F)(F)CNc1nc(Nc2ccc3ncccc3c2)nc2[nH]ccc12`, the pIC50 is 5.91. Consider `Brc1cc2c(cc1C=NNc1nc(Nc3ccccc3)nc(Nc3ccccc3)n1)OCO2`, for which the pIC50 was 6.10. On to `COc1cc2nc(N3CCC(CNC(=O)c4ccc(OC(F)(F)F)cc4)CC3)nc(N)c2cc1OC`, for which the pIC50 was 6.66. The value for `CCOc1ccc2c(NN=Cc3cccc([N+](=O)[O-])c3)cc(C)nc2c1` was 6.66; that for `OC(c1cc(C(F)(F)F)nc2c(C(F)(F)F)cccc12)C1CCCCN1` (stereo not given) was 7.15; that for `CCC(=O)Nc1nnc(Cc2ccc(OC)c(OC)c2)s1` was 6.04. Regarding `CCOC(=O)c1c(CCc2ccc(C(F)(F)F)cc2)nc2c(c1-c1ccc(C(=O)N[C@@H](C)c3ccncc3)cc1)C(=O)N1CCC[C@@H]21`, the pIC50 is 6.04.

Compound `Cc1nc(C)c(CC(=O)Nc2ccc(-c3cccc(-c4nc5c(C)cccc5[nH]4)c3)cc2)s1` showed a pIC50 of 6.22. The compound `Cc1cc(NC(=O)[C@@H](Nc2ccc(C#N)c3ccccc23)C2CCCCC2)ccc1F` had a pIC50 of 6.05. `COc1ccc2nccc([C@@H](O)CN3CCC(NCc4ccc5c(c4)N(C)C(=O)CO5)CC3)c2c1` had a pIC50 of 6.12. Take `Cc1ccc(S(=O)(=O)N(CCCNCc2cccc(O)c2)c2ccccc2)cc1`: the pIC50 was 6.11.

As to `O=C(NC1CCC(N2CCC(O)(c3ccc(F)cc3)CC2)CC1)c1cc2ccccc2[nH]1` (stereo not given), the pIC50 was 6.13. Turning to `CN(Cc1ccccc1)C(=O)CCNS(=O)(=O)c1cc(Br)cnc1N`, the negative-log IC50 (pIC50) was 5.95. The value for `COc1cc2nc(N3CCC(CNC(=O)c4cc5ccccc5s4)CC3)nc(N)c2cc1OC` was 6.54; that for `COc1cc2nc(Nc3ccc4c(ccn4Cc4ccccc4)c3)nc(Nc3ccc4c(ccn4Cc4ccccc4)c3)c2cc1OC` was 6.19; that for `O=C1c2ccccc2CN1CCCN1CCC(Oc2ccc(F)cc2)CC1` was 5.92. The compound `COc1ccc(C[C@H](N)C(=O)N[C@H]2[C@@H](O)[C@H](n3cnc4c(N(C)C)ncnc43)O[C@@H]2CO)cc1` gave a pIC50 of 6.52.

`CCCCc1cc(NCC)nc(Nc2cccc(OC)c2)n1` showed a pIC50 of 6.04. As to `CC(C)NCc1cccc(-c2cccc(NC(=O)c3ccc(C#N)cc3)c2)c1`, the pIC50 is 6.19.

With `CC1(C)C(N(O)C(=O)Nc2ccc(Cl)c(Cl)c2)N(c2ccc(Cl)c(Cl)c2)C(=O)N1CCc1ccccc1` (stereo not given), the pIC50 was 6.09. `Cn1ccnc1S(=O)(=O)CCNCc1ccc(-c2ccc3ncnc(Nc4ccc(OCc5cccc(F)c5)c(Cl)c4)c3c2)o1`: the negative logarithm of the IC50 (pIC50) is 6.15.

`N=c1n(Cc2ccccc2)c2ccccc2n1CC(O)c1ccc(Cl)c(Cl)c1` (stereo not given) gave a pIC50 of 6.08. On to `CC(C)(C)c1ccc(NC(=O)c2cccc(CN3CCCN(Cc4cccc(C#N)c4)CC3)c2)cc1`, for which the pIC50 was 6.12. On to `CCCCCCn1c(Sc2ccc(C#N)c([N+](=O)[O-])c2)nnc1-c1ccccc1`, for which the pIC50 is 6.11. `COc1cc(C(=O)N2CCOC(CCN3CCC(c4ccc(Cl)cc4)CC3)(c3ccc(Cl)c(Cl)c3)C2)cc(OC)c1OC` (stereo not given) showed a pIC50 of 6.74.

`Cc1cc(Oc2cc(NC(=O)c3sc4ncn(Cc5ccccc5F)c(=O)c4c3C)cc([N+](=O)[O-])c2)ccc1Cl`: the pIC50 is 5.94. The value for `CCOc1ccc(C2CCN(CCN3CCC(NC(=O)c4ccc(-c5ccc(C(F)(F)F)cc5)cc4)CC3)CC2)c(OCC2CC2)c1` was 6.08; that for `COc1ccccc1CNC(=O)c1nn(-c2ccc(Cl)cc2)c(=O)c2ccccc12` was 6.54; that for `CCc1c(CCNCCc2cccc(CCNCCc3ccc(OC)c(OC)c3CC)c2)ccc(OC)c1OC` was 6.44.

On to `Cc1ccc(O)cc1Nc1ccnc2cc(-c3cccc(CNCCS(C)(=O)=O)c3)ccc12`, for which the pIC50 was 6.08. As for `CCN(CC)CCN1C(=O)c2oc3ccc(Cl)cc3c(=O)c2C1c1ccc(SC)cc1` (stereo not given), the negative logarithm of the IC50 (pIC50) was 5.97.

For the compound `O=C(/C=C/c1ccc(Cl)c(Cl)c1)NCCCCCCN1CCCN(C(=O)Nc2ccc(F)c(F)c2)CC1`, the pIC50 is 5.91. The result for `Cc1ccc(NC(=O)c2cc(Br)cc(N3CCC(N(C)C)CC3)c2)cc1F` reads 6.08; that for `COCCOc1cc(C)c(C2CCN(CCCCNC(=O)c3ccc(NC(=O)c4ccc(Cl)cc4)cc3)CC2)cc1C`, 6.02. `Cc1ccccc1OCC(O)CN1CCC(C2CCN(CC(O)COc3ccccc3C)CC2)CC1` (stereo not given) showed a pIC50 of 6.51. As to `O=C(Nc1cccc(-c2ccc(-c3nc4ccc(F)cc4[nH]3)cc2)c1)c1ccncc1`, the pIC50 was 6.55. `CCCCCCn1c(Sc2ccc(C#N)c([N+](=O)[O-])c2)nnc1-c1ccc(Cl)cc1` showed a pIC50 of 6.08. The result for `O=C(CNC1CCCCC1)Nc1cccc(C(=O)Nc2cccc(C(F)(F)F)c2)c1` reads 6.38; that for `Cc1cc2cc(-c3ccc(CN)cc3)ccc2nc1N`, 5.95.

With `COc1cc(OC)cc(-c2nn(-c3ccc([N+](=O)[O-])cc3C#N)c(=S)n2CC2CCCO2)c1` (stereo not given), the pIC50 is 6.07. Turning to `CCCOc1cc(O)c(-c2n[nH]c(C)c2Oc2ccccc2)cc1CC`, the pIC50 is 5.97.

For `CC(C)CNCc1cccc(-c2cccc(CNC3CCN(Cc4ccccc4)CC3)c2)c1`, the pIC50 is 6.74.

Turning to `CC(Cc1ccc(CNC(=O)c2ccc(CC(C)NCCc3cccc(Cl)c3)cc2)cc1)NCCc1cccc(Cl)c1` (stereo not given), the pIC50 was 6.15. Consider `Cc1ccc(CN2CCCN(Cc3cccc(NC(=O)c4cc5ccccc5s4)c3)CC2)cc1`, for which the pIC50 is 5.92.
